Several values for one entry are separate records, joined by “and”; a condition that tells them apart may be missing. Identical values can stand only once.
What was measured:
[1] = tested on: animal models of osteoarthritis C57BL/6J mouse; experiment: Osteoarthritis index (histopathology, method of Rudolphi) in papain-induced osteoarthritis; format: in vivo
Protocol: (§1) 40 eight week-old animal models of osteoarthritis C57BL/6J mouse were purchased from Central Laboratory Animal Inc. (Seoul, Korea), adapted with a general diet for 1 week and then used in the experiments. The temperature and humidity of the breeding room were maintained at 20±2° C., 50±10%, the lightening conditions were such that the light was turned on and off every 12 hours and the light was kept on from 07:00˜19:00. During the experiment, the feedstuff (Orient Bio, Seoul, Korea) and water were to be freely taken.
(§2) The osteoarthritis was induced by the method given in the test guidelines of the effect of the herbal preparation presented by the Korean Food and Drug Administration. Papain (type IV, double crystallized, 15 units/mg, Sigma, USA) was adjusted to a concentration of 1.0% (w/v) in which 0.03 ML-cystein HCl (Sigma, USA) was supplemented for the activation of papain and then passed through the patellar ligament. […] 6 was administered in the right knee joint to induce osteoarthritis.
The experiment animals were adapted in a lab environment for 1 week and then the body weight was measured. Eight animals were assigned to each group to have even body weight. In the normal group, the physiological saline 6 was injected in the right knee joint and then the physiological saline 0.2 ml was orally administered once a day for 20 days. In the treated groups, i.e., a control group, a drug-administered group and a fraction 3-administered group, papain 6 was injected in the right knee joint to induce osteoarthritis. The physiological saline in the control group, Diclofenac sodium (DS, 2 mg/kg/bw) in the drug-administered group, and 100 mg/kg/bw {below, called “fraction 3 (100)”} and 200 mg/kg/bw {below, called “fraction 3 (200)”} in the fraction 3-administered group of Example 2 were orally administered once daily at a predetermined time for 20 days.
All subjects were lightly anesthetized with ether at the experiment end day to take a heart blood sample. The blood was centrifuged to isolate a serum. Immediately after taking a heart blood sample, the right hip joint and ankle joint were isolated and removed so as not to damage the knee joint. The tibial of the right knee joint was fixed in 10% neutral formalin solution for 24 hours and then used for the visual observation of the joints.
The osteoarthritis index for the observed histopathological lesions in the articular cartilage and synovial membrane was digitalized in accordance with a method of Rudolphi, at al. and is shown in Table 2 below.

[2] = tested on: animal models of osteoarthritis C57BL/6J mouse; experiment: Visual observation of knee joint cartilage surface in papain-induced osteoarthritis; format: in vivo; settings: DS 2 mg/kg/bw; fraction 3 100 and 200 mg/kg/bw; oral once daily 20 days
Protocol: as §1, §2
The experiment animals were adapted in a lab environment for 1 week and then the body weight was measured. Eight animals were assigned to each group to have even body weight. In the normal group, the physiological saline 6 was injected in the right knee joint and then the physiological saline 0.2 ml was orally administered once a day for 20 days. […]

[3] = tested on: TNF-α; experiment: TNF-α content in blood, ELISA, papain-induced arthritis; format: in vivo, mouse; settings: DS 2 mg/kg/bw; fraction 3 100 and 200 mg/kg/bw; oral once daily 20 days
Protocol: The experiment animals were adapted in a lab environment for 1 week and then the body weight was measured. Eight animals were assigned to each group to have even body weight. In the normal group, the physiological saline 6 was injected in the right knee joint and then the physiological saline 0.2 ml was orally administered once a day for 20 days. In the treated groups, i.e., a control group, a drug-administered group and a fraction 3-administered group, papain 6 was injected in the right knee joint to induce osteoarthritis. The physiological saline in the control group, Diclofenac sodium (DS, 2 mg/kg/bw) in the drug-administered group, and 100 mg/kg/bw {below, called “fraction 3 (100)”} and 200 mg/kg/bw {below, called “fraction 3 (200)”} in the fraction 3-administered group of Example 2 were orally administered once daily at a predetermined time for 20 days. All subjects were lightly anesthetized with ether at the experiment end day to take a heart blood sample. The blood was centrifuged to isolate a serum. […] The contents of tumor necrosis factor-α (TNF-α), interleukin-1β (IL-1β) and interleukin-6 (IL-6) were measured using enzyme-linked immunosorbent assay (ELISA) kit, respectively. The effect of fraction 3 of the inflammatory cytokine TNF-α produced in large quantities in animals where arthritis was induced by injection of papain, was measured by ELISA method.

[4] = tested on: IL-1β; experiment: Interleukin-1β content in blood, ELISA, papain-induced arthritis; format: in vivo, mouse; settings: DS 2 mg/kg/bw; fraction 3 100 and 200 mg/kg/bw; oral once daily 20 days; p<0.05
Protocol: The experiment animals were adapted in a lab environment for 1 week and then the body weight was measured. Eight animals were assigned to each group to have even body weight. In the normal group, the physiological saline 6 was injected in the right knee joint and then the physiological saline 0.2 ml was orally administered once a day for 20 days. In the treated groups, i.e., a control group, a drug-administered group and a fraction 3-administered group, papain 6 was injected in the right knee joint to induce osteoarthritis. The physiological saline in the control group, Diclofenac sodium (DS, 2 mg/kg/bw) in the drug-administered group, and 100 mg/kg/bw {below, called “fraction 3 (100)”} and 200 mg/kg/bw {below, called “fraction 3 (200)”} in the fraction 3-administered group of Example 2 were orally administered once daily at a predetermined time for 20 days. All subjects were lightly anesthetized with ether at the experiment end day to take a heart blood sample. The blood was centrifuged to isolate a serum. […] The contents of tumor necrosis factor-α (TNF-α), interleukin-1β (IL-1β) and interleukin-6 (IL-6) were measured using enzyme-linked immunosorbent assay (ELISA) kit, respectively. The effect of fraction 3 of the inflammatory cytokine IL-1β produced in large quantities in animals where arthritis was induced by injection of papain was measured by ELISA method.

[5] = tested on: IL-6; experiment: Interleukin-6 content in blood, ELISA, papain-induced arthritis; format: in vivo, mouse; settings: DS 2 mg/kg/bw; fraction 3 100 and 200 mg/kg/bw; oral once daily 20 days
Protocol: The experiment animals were adapted in a lab environment for 1 week and then the body weight was measured. Eight animals were assigned to each group to have even body weight. In the normal group, the physiological saline 6 was injected in the right knee joint and then the physiological saline 0.2 ml was orally administered once a day for 20 days. In the treated groups, i.e., a control group, a drug-administered group and a fraction 3-administered group, papain 6 was injected in the right knee joint to induce osteoarthritis. The physiological saline in the control group, Diclofenac sodium (DS, 2 mg/kg/bw) in the drug-administered group, and 100 mg/kg/bw {below, called “fraction 3 (100)”} and 200 mg/kg/bw {below, called “fraction 3 (200)”} in the fraction 3-administered group of Example 2 were orally administered once daily at a predetermined time for 20 days. All subjects were lightly anesthetized with ether at the experiment end day to take a heart blood sample. The blood was centrifuged to isolate a serum. Immediately after taking a heart blood sample, the right hip joint and ankle joint were isolated and removed so as not to damage the knee joint. […] The contents of tumor necrosis factor-α (TNF-α), interleukin-1β (IL-1β) and interleukin-6 (IL-6) were measured using enzyme-linked immunosorbent assay (ELISA) kit, respectively.

[6] = Papain + DS 2 mg/kg/bw oral once daily 20 days, group mean
[7] = Papain + DS 2 mg/kg/bw oral once daily 20 days, individual animals 1-8

O=C(O)Cc1ccccc1Nc1c(Cl)cccc1Cl [DS, Diclofenac sodium]
osteoarthritis index compared with the papain-administered control group ([1]; DS 2 mg/kg/bw, fraction 3 100 and 200 mg/kg/bw, oral once daily 20 days, p<0.05): significantly lower | Cellularity score, Mean [1, 6]: 2.0 | Matrix structure score, Mean [1, 6]: 2.6 | Subchondral bone score, Mean [1, 6]: 1.1 | Synovial membrane score, Mean [1, 6]: 1.5 | Sum of osteoarthric score, Mean ([1]; Papain + DS 2 mg/kg/bw oral once daily 20 days, group mean, papain control 19.8): 7.4 | Cellularity score, per subject [1, 7]: 2 | Matrix structure score, per subject [1, 7]: 1 (3×) and 3 (4×) and 6 | Subchondral bone score, per subject [1, 7]: 3 (3×) and 0 (5×) | Sum of osteoarthric score, per subject [1, 7]: 6 (2×) and 4 and 11 (2×) and 5 and 8 (2×) | Synovial membrane score, per subject [1, 7]: 0 (3×) and 1 and 3 (4×) | visual appearance of knee joint cartilage surface compared with papain-administered group [2]: the scope of the discoloration was less and the elimination of visual cartilage surface was not observed | TNF-α content in blood compared with papain-administrated control group [3]: significantly lower | IL-1β content in blood compared with papain-administrated control group [4]: significantly lower | IL-6 content in blood compared with papain-administrated control group [5]: significantly lower
